In brackets after ≈: the same amount, converted by molar mass. Several values for one entry are separate records, joined by “and”; a condition that tells them apart may be missing. Equal entries are not always repeated. Structures can show the parent of a compound that is named as a salt. Where two headings read alike, the source gives them in different places.
Tests used:
B/Hong Kong/5/72 BVLV012 = experiment: Plaque reduction assay (PRA) in MDCK cells; assay type: cell-based, influenza B; details: for EC50: Influenza B virus, MDCK, read-out: EC50 PRA B/HongK
Experimental: (§1) Madin Darby Canine Kidney (MDCK) cells are seeded into six well tissue culture plates and grown to confluency via standard methods. Influenza viruses are diluted in a minimal volume of phosphate buffered saline supplemented with 0.2% bovine serum albumin to yield an estimated titre of 50–100 plaque forming units (pfu) per well. After adsorption to the MDCK cells for one hour at 37° C. in a 5% CO2 atmosphere the viral inocula is aspirated and replaced with viral growth media (minimal Eagle's media supplemented with BSA, trypsin and insulin/transferrin/selenium at optimal concentrations) containing sufficient agar or agarose (generally 1–2%) to cause the media to gel at room temperature and at 37° C. in a 5% CO2 atmosphere until plaques develop (generally 2–4 days). Plaques can be visualised with a suitable stain (e.g. 0.4% crystal violet in formal saline) before counting.

[1] = test system: A/Victoria/3/75 BVLV017 (H3N2); experiment: Plaque reduction assay (PRA) in MDCK cells; assay type: cell-based; details: for EC50: Influenza A virus
[2] = test system: B/Yamanashi/166/98 BVLV007; experiment: Plaque reduction assay (PRA) in MDCK cells; assay type: cell-based; details: for EC50: Influenza B virus, MDCK
[3] = test system: A/New Caledonia/20/99 BVLV008 (H1N1); experiment: Plaque reduction assay (PRA) in MDCK cells; assay type: cell-based; details: Influenza A virus
Influenza A/Sydney/5/97 = experiment: Cytopathic effect (CPE) assay, inhibition of influenza virus replication in MDCK cells; assay type: cell-based
Influenza B/Harbin/7/95 = experiment: as above; assay type: cell-based; details: up to 72 hours, MTT
B/Victoria/1/67 = experiment: Plaque reduction assay (PRA) in MDCK cells; assay type: cell-based, influenza B; details: bis(trifluoroacetic acid salt)
[4] = test system: A/Sydney/5/97 BVLV015 (H3N2); experiment: Plaque reduction assay (PRA) in MDCK cells; assay type: cell-based, influenza A H3N2; details: A/Sydney/5/97 (H3N2)
Experimental: as §1

[5] = Rat lung retention assay (intra-tracheal dosing); assay type: in vivo; details: for Mean (cmpd) / (cmpd): 0.1 mg/kg intra-tracheal; for (cmpd) / PCT AU01/01128 compound 3 ng/g: individual animal; for (cmpd): bis(trifluoroacetic acid salt)
Experimental: Rodents are anaesthetised and dosed with compound of interest by the intra-tracheal route at a dose volume of 0.8 ml/kg. The rodent is then held in the vertical position until full recovery is achieved. […] Any analytical method suitable for detection of this type of compound may be used. The time at which levels of compound fall below the sensitivity of the analytical techniques identified will determine the residency time of the compound in lung tissue.
Please note that all experiments included a co-dosed internal standard, namely compound 3 of International Patent Publication No. WO 02/20514, to permit comparison. The data are expressed as a ratio with respect to this compound, the structure of which is shown below.

[6] = test system: A/Panama/2007/99 BVLV008 (H3N2); experiment: Plaque reduction assay (PRA) in MDCK cells; assay type: cell-based; details: Influenza A virus
A/WSN/33 BVLV09 (H1N1) = experiment: Plaque reduction assay (PRA) in MDCK cells; assay type: cell-based, influenza A H1N1; details: Influenza A virus, MDCK, A/WSN/33 (H1N1)
Experimental: as §1

[7] = read-out: EC50 PRA B/Yam, plaque reduction, B/Yamanashi/166/98
[8] = H1N1, MDCK, read-out: EC50 PRA A/New, plaque reduction, A/New Caledonia/20/99 (H1N1)
[9] = rat, in vivo, 0.1 mg/kg, Mean (cmpd) ng/g
[10] = rat lung, co-dosed internal standard, 48 hrs

NC12CC3CC(CC(C3)C1)C2 [Amantadine, reference compound]
EC50 (B/Hong Kong/5/72 BVLV012): > 10000 ng/mL
EC50 ([1]; H3N2, MDCK, read-out: EC50 PRA A/Vic, plaque reduction, A/Victoria/3/75 (H3N2)): 220 ng/mL (≈ 1.45 µM)
EC50 [2, 7]: 2060 ng/mL (≈ 13.6 µM)
EC50 [3, 8]: 11 ng/mL (≈ 0.0727 µM)

CC(=O)N[C@H]1[C@H]([C@H](OC(=O)NCCCCCCCCCCNC(=O)O[C@@H]([C@@H]2OC(C(=O)O)=C[C@H](NC(=N)N)[C@H]2NC(C)=O)[C@H](O)CO)[C@H](O)CO)OC(C(=O)O)=C[C@@H]1NC(=N)N.O=C(O)C(F)(F)F.O=C(O)C(F)(F)F [Example 1, (2R,3R,4S)-3-(acetylamino)-2-{(1R,18R,19R)-18-((2R,3R,4S)-3-(acetylamino)-4-{[amino(imino)methyl]amino}-6-carboxy-3,4-dihydro-2H-pyran-2-yl)-1-[(1R)-1,2-dihydroxyethyl]-19,20-dihydroxy-3,16-dioxo-2,17-dioxa-4,15-diazaicos-1-yl}-4-{[amino(imino)methyl]amino}-3,4-dihydro-2H-pyran-6-carboxylic acid bis(trifluoroacetic acid salt)]
ID50 A/Sydney/5/97 (Influenza A/Sydney/5/97; up to 72 hours, MTT): 0.0002 µg/mL
ID50 B/Harbin/7/95 (Influenza B/Harbin/7/95): 0.0001 µg/mL

CC(=O)N[C@H]1[C@H]([C@H](OC(=O)NCCCCCCCCCCCNC(=O)O[C@@H]([C@@H]2OC(C(=O)O)=C[C@H](NC(=N)N)[C@H]2NC(C)=O)[C@H](O)CO)[C@H](O)CO)OC(C(=O)O)=C[C@@H]1NC(=N)N.O=C(O)C(F)(F)F.O=C(O)C(F)(F)F [Example 2, (2R,3R,4S)-3-(acetylamino)-2-{(1R,19R,20R)-19-((2R,3R,4S)-3-(acetylamino)-4-{[amino(imino)methyl]amino}-6-carboxy-3,4-dihydro-2H-pyran-2-yl)-1-[(1R)-1,2-dihydroxyethyl]-20,21-dihydroxy-3,17-dioxo-2,18-dioxa-4,16-diazahenicos-1-yl}-4-{[amino(imino)methyl]amino}-3,4-dihydro-2H-pyran-6-carboxylic acid bis(trifluoroacetic acid salt)]
ID50 A/Sydney/5/97 (Influenza A/Sydney/5/97; up to 72 hours, MTT): 0.0001 µg/mL
EC50 PRA B/Vic (B/Victoria/1/67): 0.04 ng/mL
EC50 PRA B/Yam ([2]; plaque reduction, B/Yamanashi/166/98): <0.0001 ng/mL
ID50 B/Harbin/7/95 (Influenza B/Harbin/7/95): 0.0001 µg/mL
EC50 PRA A/Syd [4]: <0.0001 ng/mL

CC(=O)N[C@H]1[C@H]([C@H](OC(=O)NCCCCCCCCCCCCNC(=O)O[C@@H]([C@@H]2OC(C(=O)O)=C[C@H](NC(=N)N)[C@H]2NC(C)=O)[C@H](O)CO)[C@H](O)CO)OC(C(=O)O)=C[C@@H]1NC(=N)N.O=C(O)C(F)(F)F.O=C(O)C(F)(F)F [Example 3, (2R,3R,4S)-3-(acetylamino)-2-{(1R,20R,21R)-20-((2R,3R,4S)-3-(acetylamino)-4-{[amino(imino)methyl]amino}-6-carboxy-3,4-dihydro-2H-pyran-2-yl)-1-[(1R)-1,2-dihydroxyethyl]-21,22-dihydroxy-3,18-dioxo-2,19-dioxa-4,17-diazadocos-1-yl}-4-{[amino(imino)methyl]amino}-3,4-dihydro-2H-pyran-6-carboxylic acid bis(trifluoroacetic acid salt)]
EC50 PRA B/HongK (B/Hong Kong/5/72 BVLV012): <0.0001 ng/mL
ID50 A/Sydney/5/97 (Influenza A/Sydney/5/97; molar): 0.087 M
ID50 A/Sydney/5/97 (Influenza A/Sydney/5/97; up to 72 hours, MTT): 0.0001, 0.0001 μg/ml
EC50 PRA A/Vic ([1]; plaque reduction, A/Victoria/3/75 (H3N2)): 0.0023 ng/mL
Mean (cmpd) ([5]; rat lung, 48 hrs): 1117 ng/g
Mean (cmpd) ([5]; rat lung, 168 hrs): 376 ng/g
(cmpd) ([5]; rat lung, 48 hrs, 0.1 mg/kg): 591 ng/g and 1845 ng/g and 914 ng/g
(cmpd) ([5]; rat lung, 168 hrs, 0.1 mg/kg): 471 ng/g and 546 ng/g and 111 ng/g
EC50 PRA B/Vic (B/Victoria/1/67): 0.01 ng/mL
ID50 B/Harbin/7/95 (Influenza B/Harbin/7/95): 0.0001, 0.0001 μg/ml

CC(=O)N[C@H]1[C@H]([C@H](OC(=O)NCCCCCCCCCCCCCNC(=O)O[C@@H]([C@@H]2OC(C(=O)O)=C[C@H](NC(=N)N)[C@H]2NC(C)=O)[C@H](O)CO)[C@H](O)CO)OC(C(=O)O)=C[C@@H]1NC(=N)N [Example 4, (2R,3R,4S)-3-(acetylamino)-2-{(1R,21R,22R)-21-((2R,3R,4S)-3-(acetylamino)-4-{[amino(imino)methyl]amino}-6-carboxy-3,4-dihydro-2H-pyran-2-yl)-1-[(1R)-1,2-dihydroxyethyl]-22,23-dihydroxy-3,19-dioxo-2,20-dioxa-4,18-diazatricos-1-yl}-4-{[amino(imino)methyl]amino}-3,4-dihydro-2H-pyran-6-carboxylic acid bis(trifluoroacetic acid salt)]
EC50 (B/Hong Kong/5/72 BVLV012): 0.06 ng/mL
ID50 A/Sydney/5/97 (Influenza A/Sydney/5/97; up to 72 hours, MTT): 0.0001 µg/mL
Ratio Mean (lung) (cmpd)/PCT AU01/01128 compound 3 ([5]; rat, in vivo, 0.1 mg/kg, 48 h): 1.70
Ratio Mean (lung) (cmpd)/PCT AU01/01128 compound 3 ([5]; rat, in vivo, 0.1 mg/kg, 168 h): 1.48
concentration at 48 h [5, 9]: 1770 ng/g
concentration at 168 h [5, 9]: 756 ng/g
EC50 ([6]; H3N2, MDCK, read-out: EC50 PRA A/Pan, plaque reduction, A/Panama/2007/99 (H3N2)): < 1e-05 ng/mL
EC50 [2, 7]: < 0.0001 ng/mL
ID50 B/Harbin/7/95 (Influenza B/Harbin/7/95): 0.0001 µg/mL
EC50 [3, 8]: 0.043 ng/mL
EC50 (A/WSN/33 BVLV09 (H1N1)): < 0.0001 ng/mL
EC50 ([4]; Influenza A virus, MDCK, read-out: EC50 PRA A/Syd): < 0.0001 ng/mL

CCOC(=O)C1=C[C@@H](OC(CC)CC)[C@H](NC(C)=O)[C@@H](N)C1 [Oseltamivir]
EC50 (B/Hong Kong/5/72 BVLV012): 32 ng/mL (≈ 0.102 µM)
EC50 ([1]; MDCK, plaque reduction, A/Victoria/3/75 (H3N2), read-out: EC50 PRA A/Vic): 0.11 ng/mL (≈ 0.000352 µM)
EC50 ([6]; MDCK, plaque reduction, A/Panama/2007/99 (H3N2), read-out: EC50 PRA A/Pan): 0.3 ng/mL (≈ 0.00096 µM)
EC50 ([2]; plaque reduction, B/Yamanashi/166/98, read-out: EC50 PRA B/Yam): 0.7 ng/mL (≈ 0.00224 µM)
EC50 ([3]; MDCK, plaque reduction, A/New Caledonia/20/99 (H1N1), read-out: EC50 PRA A/New): 0.23 ng/mL (≈ 0.000736 µM)

CC(=O)N[C@H]1[C@H]([C@H](OC(=O)NCCCCCCNC(=O)CN(CCN(CC(=O)NCCCCCCNC(=O)O[C@H](C(O)CO)[C@@H]2OC(C(=O)O)=C[C@H](NC(=N)N)[C@H]2NC(C)=O)CC(=O)NCCCCCCNC(=O)O[C@H](C(O)CO)[C@@H]2OC(C(=O)O)=C[C@H](NC(=N)N)[C@H]2NC(C)=O)CC(=O)NCCCCCCNC(=O)O[C@H](C(O)CO)[C@@H]2OC(C(=O)O)=C[C@H](NC(=N)N)[C@H]2NC(C)=O)[C@H](O)CO)OC(C(=O)O)=C[C@@H]1NC(=N)N (stereo partly drawn) [PCT AU01/01128 compound 3]
Mean (PCT AU01/01128 compound 3) [5, 10]: 1478 ng/g and 1368 ng/g and 1413 ng/g
PCT AU01/01128 compound 3 ng/g [5, 10]: 1098 ng/g and 1352 ng/g and 681 ng/g and 784 ng/g and 2046 ng/g and 1605 ng/g and 698 ng/g and 1901 ng/g and 1507 ng/g and 655 ng/g and 1840 ng/g and 1744 ng/g
PCT AU01/01128 compound 3 ng/g ([5]; rat lung, co-dosed internal standard, 168 hrs): 580 ng/g and 829 ng/g and 636 ng/g and 524 ng/g and 367 ng/g and 632 ng/g and 242 ng/g (2×) and 216 ng/g and 815 ng/g and 925 ng/g and 512 ng/g
concentration at 48 h ([5]; rat, in vivo, rat lung, co-dosed internal standard, 48 hrs, read-out: Mean (PCT AU01/01128 compound 3)): 1040 ng/g
